Results taken from article PMC5007552, “The hVps34‐SGK3 pathway alleviates sustained PI3K/Akt inhibition by stimulating mTORC1 and tumour growth” (The EMBO Journal, 2016).
Where “and” joins values, the source holds several entries; their conditions need not be identical. Equal entries are not always repeated.

Tested on: ZR-75-1 cells
Experiment: NanoString human kinome mRNA quantification
Assay type: cell-based
Description: Human mRNAs were hybridised to NanoString human kinome and control code sets, then subjected to quantification using NanoString software. […] To permit data compaction, and simple kinome‐wide comparisons, the fold changes are log2 transformed. […] Cell pellets were resuspended at a concentration of ~6,500 cells/μl in RLT buffer (Qiagen). […] For total copy numbers, triplicate normalised count values were averaged, and to calculate fold induction, means were divided by triplicate mean values from matched DMSO controls. P‐values were calculated using unpaired t‐test (GraphPad Prism software) by employing treated and control count data for each kinase mRNA.

NC1(c2ccc(-c3nc4ccn5c(=O)[nH]nc5c4cc3-c3ccccc3)cc2)CCC1 [MK-2206]
RYK normalised counts (RYK mRNA, single replicates): 1148.59 and 1139.68 and 1120.05
SBK1 normalised counts, average (SBK1 mRNA, average of 3 replicates): 361.503
SBK1 normalised counts (SBK1 mRNA, single replicates): 371.43 and 336.09 and 376.99
SBK2 normalised counts, average (SBK2 mRNA, average of 3 replicates): 1.323
SBK2 normalised counts (SBK2 mRNA, single replicates): 1.48 and 1 and 1.49
SCYL1 normalised counts, average (SCYL1 mRNA, average of 3 replicates): 556.557
SCYL1 normalised counts (SCYL1 mRNA, single replicates): 560.49 and 556.75 and 552.43
SCYL2 normalised counts, average (SCYL2 mRNA, average of 3 replicates): 1373.8
SCYL2 normalised counts (SCYL2 mRNA, single replicates): 1302.21 and 1441.13 and 1378.05
SCYL3 normalised counts, average (SCYL3 mRNA, average of 3 replicates): 629.833
SCYL3 normalised counts (SCYL3 mRNA, single replicates): 586.85 and 664.48 and 638.17
SGK1 normalised counts, average (SGK1 mRNA, average of 3 replicates): 34.7533
SGK1 normalised counts (SGK1 mRNA, single replicates): 45.11 and 34.64 and 24.51
SGK2 normalised counts, average (SGK2 mRNA, average of 3 replicates): 5.517
SGK2 normalised counts (SGK2 mRNA, single replicates): 6.93 and 3.37 and 6.25
SGK3 normalised counts, average (SGK3 mRNA, average of 3 replicates): 345.983
SGK3 normalised counts (SGK3 mRNA, single replicates): 345.97 and 349.13 and 342.85
SGK110 normalised counts, average (SGK110 mRNA, average of 3 replicates): 1
SGK110 normalised counts (SGK110 mRNA, single replicates): 1
SGK223 normalised counts, average (SGK223 mRNA, average of 3 replicates): 114.123
SGK223 normalised counts (SGK223 mRNA, single replicates): 115.1 and 115.43 and 111.84
SGK494 normalised counts (SGK494 mRNA, single replicates): 270.07 and 276.17
SIK1 normalised counts, average (SIK1 mRNA, average of 3 replicates): 97.7933
SIK1 normalised counts (SIK1 mRNA, single replicates): 92.37 and 96.32 and 104.69
SIK2 normalised counts, average (SIK2 mRNA, average of 3 replicates): 489.35
SIK2 normalised counts (SIK2 mRNA, single replicates): 465.05 and 503.76 and 499.24
SIK3 normalised counts, average (SIK3 mRNA, average of 3 replicates): 191.663
SIK3 normalised counts (SIK3 mRNA, single replicates): 213.27 and 183.2 and 178.52
SLK normalised counts, average (SLK mRNA, average of 3 replicates): 781.283
SLK normalised counts (SLK mRNA, single replicates): 777.73 and 819.98 and 746.14
SNRK normalised counts (SNRK mRNA, single replicates): 215.99 and 274.58
SPEG normalised counts, average (SPEG mRNA, average of 3 replicates): 35.4833
SPEG normalised counts (SPEG mRNA, single replicates): 26.93 and 40.72 and 38.8
SRC normalised counts, average (SRC mRNA, average of 3 replicates): 1093.13
SRC normalised counts (SRC mRNA, single replicates): 1115.87 and 1045.86 and 1117.67
SRMS normalised counts, average (SRMS mRNA, average of 3 replicates): 3.94
SRMS normalised counts (SRMS mRNA, single replicates): 1.48 and 2.5 and 7.84
SRPK1 normalised counts, average (SRPK1 mRNA, average of 3 replicates): 1401.66
SRPK1 normalised counts (SRPK1 mRNA, single replicates): 1439.46 and 1380.32 and 1385.2
SRPK3 normalised counts, average (SRPK3 mRNA, average of 3 replicates): 7.937
SRPK3 normalised counts (SRPK3 mRNA, single replicates): 8.75 and 11.19 and 3.87
STK3 normalised counts, average (STK3 mRNA, average of 3 replicates): 371.33
STK3 normalised counts (STK3 mRNA, single replicates): 336.89 and 406.46 and 370.64
STK10 normalised counts, average (STK10 mRNA, average of 3 replicates): 433.017
STK10 normalised counts (STK10 mRNA, single replicates): 449.6 and 416.89 and 432.56
STK11 normalised counts, average (STK11 mRNA, average of 3 replicates): 800.127
STK11 normalised counts (STK11 mRNA, single replicates): 804.09 and 773.94 and 822.35
STK16 normalised counts, average (STK16 mRNA, average of 3 replicates): 424.973
STK16 normalised counts (STK16 mRNA, single replicates): 430.51 and 422.97 and 421.44
STK17A normalised counts, average (STK17A mRNA, average of 3 replicates): 614.85
STK17A normalised counts (STK17A mRNA, single replicates): 623.21 and 605.4 and 615.94
STK17B normalised counts, average (STK17B mRNA, average of 3 replicates): 149.18
STK17B normalised counts (STK17B mRNA, single replicates): 155.09 and 144.1 and 148.35
STK19 normalised counts, average (STK19 mRNA, average of 3 replicates): 156.807
STK19 normalised counts (STK19 mRNA, single replicates): 145.09 and 157.13 and 168.2
STK24 normalised counts (STK24 mRNA, single replicates): 2291.16
STK25 normalised counts, average (STK25 mRNA, average of 3 replicates): 893.797
STK25 normalised counts (STK25 mRNA, single replicates): 868.63 and 899.91 and 912.85
STK31 normalised counts, average (STK31 mRNA, average of 3 replicates): 2.42
STK31 normalised counts (STK31 mRNA, single replicates): 2.39 and 1 and 3.87
STK32A normalised counts, average (STK32A mRNA, average of 3 replicates): 1.637
STK32A normalised counts (STK32A mRNA, single replicates): 1 and 1.63 and 2.28
STK32B normalised counts, average (STK32B mRNA, average of 3 replicates): 1.427
STK32B normalised counts (STK32B mRNA, single replicates): 1 (2×) and 2.28
STK32C normalised counts, average (STK32C mRNA, average of 3 replicates): 205.643
STK32C normalised counts (STK32C mRNA, single replicates): 188.41 and 219.8
STK33 normalised counts, average (STK33 mRNA, average of 3 replicates): 1.163
STK33 normalised counts (STK33 mRNA, single replicates): 1 (2×) and 1.49
STK35 normalised counts, average (STK35 mRNA, average of 3 replicates): 342.25
STK35 normalised counts (STK35 mRNA, single replicates): 336.89 and 343.04 and 346.82
STK38L normalised counts, average (STK38L mRNA, average of 3 replicates): 664.543
STK38L normalised counts (STK38L mRNA, single replicates): 674.11 and 657.53 and 661.99
STK38 normalised counts, average (STK38 mRNA, average of 3 replicates): 732.567
STK38 normalised counts (STK38 mRNA, single replicates): 697.74 and 733.98 and 765.98
STK39 normalised counts, average (STK39 mRNA, average of 3 replicates): 817.837
STK39 normalised counts (STK39 mRNA, single replicates): 763.19 and 842.57 and 847.75
Normalised counts (single replicate) (VRK3 mRNA): 720.47 and 725.29 and 752.49
Normalised counts (single replicate) (WEE2 mRNA): 1.48 and 1.63 and 1.49
Normalised counts (single replicate) (WNK1 mRNA): 3425.55 and 3529.59 and 3400.03
Normalised counts (single replicate) (WNK2 mRNA): 345.97 and 335.23 and 337.29
Normalised counts (single replicate) (WNK3 mRNA): 30.56 and 30.3 and 37.21
Normalised counts (single replicate) (WNK4 mRNA): 5.11 and 1 and 4.66
Normalised counts (single replicate) (YES1 mRNA): 2809.27 and 2957.96 and 2943.56
Normalised counts (single replicate) (YSK4 mRNA): 1 (2×) and 1.49
Normalised counts (single replicate) (ZAK mRNA): 35.11 and 50.28 and 49.91
Normalised counts (single replicate) (ZAP70 mRNA): 1 (2×) and 1.63
rank of SGK3 mRNA among AGC kinases (ZR-75-1, DMSO vehicle 29th): 12
